Experiments:
[1] = tested on: PC12 cells; assay: EGR-SEAP/PC12 screening assay for neuronal activity; format: cell-based, rat; settings: 50 ng/ul; PC12 EGR-SEAP; typically seen
Excerpt: Particularly, the following protocol is used to assess neuronal activity in PC12 cell lines. PC12 cells (rat phenochromocytoma cells) are known to proliferate and/or differentiate by activation with a number of mitogens, such as TPA (tetradecanoyl phorbol acetate), NGF (nerve growth factor), and EGF (epidermal growth factor). The EGR1 gene expression is activated during this treatment. Thus, by stably transfecting PC12 cells with a construct containing an EGR promoter linked to SEAP reporter, activation of PC12 cells by CLC can be assessed.
The EGR/SEAP reporter construct can be assembled by the following protocol. The EGR-1 promoter sequence (−633 to +1; Sakamoto, K., et al., Oncogene 6:867-871 (1991)) can be PCR amplified from human genomic DNA using the following primers. The 5′ primer has the sequence: 5′-GCGCTCGAGGGATGACAGCGATAGAACCCCGG-3′ (SEQ ID NO:19) and the 3′ primer has the sequence: 5′-GCGAAGCTTCGCGACTCCCCGGATCCGCCTC-3′ (SEQ ID NO:20).
Using the GAS:SEAP/Neo vector produced in Example 6, EGR1 amplified product can then be inserted into this vector. Linearize the GAS:SEAP/Neo vector using restriction enzymes Xho I and Hind III, removing the GAS/SV40 stuffer. Restrict the EGR1 amplified product with these same enzymes. Ligate the vector and the EGR1 promoter. […]

[2] = tested on: NF-κB promoter element in Jurkat T-cells; assay: NF-κB/SEAP screening assay in Jurkat T-cells; format: cell-based; settings: 0.1, 1, 10 ng, typically observed
Description: Due to its central role and ability to respond to a range of stimuli, reporter constructs utilizing the NF-κB promoter element are used to screen the supernatants produced in Example 6. Activators or inhibitors of NF-κB would be useful in treating diseases. For example, inhibitors of NF-κB could be used to treat those diseases related to the acute or chronic activation of NF-κB, such as rheumatoid arthritis and others.
PCR amplification is performed using the SV40 promoter template present in the pb-gal:promoter plasmid obtained from Clontech. The resulting PCR fragment is digested with Xho I and Hind III and subcloned into BLSK2-(Stratagene). Sequencing with the T7 and T3 primers confirms the insert contains the following sequence: 5′-CTC
Next, replace the SV40 minimal promoter element present in the pSEAP2-promoter plasmid (Clontech) with this NF-κB/SV40 fragment using Xho I and Hind III.
Particularly, the NF-κB/SV40/SEAP cassette was inserted into pGFP-1 (Clontech), replacing the GFP gene, after restricting pGFP- 1 with Sal I and Not I.
Once NF-κB/SV40/SEAP/Neo vector is created, stable Jurkat T-cells are created and maintained according to the protocol described in Example 9. Similarly, the method for assaying supernatants with these stable Jurkat T-cells is also described in Example 9. […]

[3] = tested on: Jurkat T-cells; assay: Jurkat:GAS-SEAP screening assay for T-cell activity; format: cell-based; settings: 100 Unit/ml, typically observed
Description: The following protocol is used to assess T-cell activity of CLC by determining whether CLC supernatant proliferates and/or differentiates T-cells. T-cell activity is assessed using the GAS/SEAP/Neo construct produced in Example 6. Thus, factors that increase SEAP activity indicate the ability to activate the Jaks-STATs signal transduction pathway. The T-cell used in this assay is Jurkat T-cells (ATCC Accession No. TIB-152), although Molt-3 cells (ATCC Accession No. CRL-1552) and Molt-4 cells (ATCC Accession No. CRL-1582) cells can also be used.
Jurkat T-cells are lymphoblastic CD4+ Th1 helper cells. In order to generate stable cell lines, approximately 2 million Jurkat cells are transfected with the GAS-SEAP/neo vector using DMRIE-C (Life Technologies; transfection procedure described below). The transfected cells are seeded to a density of approximately 20,000 cells per well and transfectants resistant to 1 mg/ml geneticin selected. Resistant colonies are expanded and then tested for their response to increasing concentrations of interferon gamma.
Specifically, the following protocol will yield sufficient cells for 75 wells containing 200 μl of cells. Thus, it is either scaled up, or performed in multiple to generate sufficient cells for multiple 96 well plates. Jurkat cells are maintained in RPMI+10% serum with 1% Pen-Strep. […]

[4] = tested on: STATS; settings: numbers of the STATs activated; adapted from Schidler and Darnell review; cited from earlier work
[5] = tested on: GAS or ISRE; settings: element bound; adapted from Schidler and Darnell review; cited from earlier work
[6] = tested on: U937 cells; assay: GAS-SEAP/U937 assay identifying myeloid activity; format: cell-based; settings: 100 Unit/ml; U937 GAS-SEAP; typically observed
Description: The following protocol is used to assess myeloid activity of CLC by determining whether CLC proliferates and/or differentiates myeloid cells. Myeloid cell activity is assessed using the GAS/SEAP/Neo construct produced in Example 6. Thus, factors that increase SEAP activity indicate the ability to activate the Jaks-STATS signal transduction pathway. The myeloid cell used in this assay is U937, a pre-monocyte cell line, although TF-1, HL60, or KG1 can be used.
To transiently transfect U937 cells with the GAS/SEAP/Neo construct produced in Example 6, a DEAE-Dextran method (Kharbanda, et. al., Cell Growth & Differentiation 5:259-265 (1994)) is used. First, harvest 2×10^7 U937 cells and wash with PBS. The U937 cells are usually grown in RPMI 1640 medium containing 10% heat-inactivated fetal bovine serum (FBS) supplemented with 100 units/ml penicillin and […] streptomycin.
Next, suspend the cells in 1 ml of 20 mM Tris-HCl (pH 7.4) buffer containing 0.5 mg/ml DEAE-Dextran, 8 ug GAS-SEAP2 plasmid DNA, 140 mM NaCl, 5 mM KCl, 375 μM Na2HPO47H2O, […], and 675 μM CaCl2. Incubate at 37° C. for 45 min.
Wash the cells with RPMI 1640 medium containing 10% FBS and then resuspend in 10 ml complete medium and incubate at 37° C. for 36 hr.
The GAS-SEAP/U937 stable cells are obtained by growing the cells in 400 μg/ml G418. […]

Substance: NGF: growth factor known to activate PC12 cells through EGR
- induction of SEAP in positive control wells [1]: Over fifty-fold induction

Substance: TNF alpha
- activation in positive control wells [2]: 5-10 fold

Substance: interferon gamma: positive control known to activate Jurkat T cells and U937 cells [reference compound]
- induction of SEAP in positive control wells [3]: Over 30 fold
- STATS [4]: 1
- GAS or ISRE [5]: GAS
- induction of SEAP in positive control wells [6]: Over 30 fold
